Results as given in patent US7087253B2 (AKH Arzneimittelkontor GmbH, priority 2002, dated 2006).

Test system: patients with acute bronchitis
Test: double blind, randomized, placebo-controlled clinical study, 14-day treatment of acute bronchitis
Format: in vivo
Procedure: A parallel group of patients was treated for 14 days correspondingly with placebo or cefuroxime.

CO/N=C(\C(=O)N[C@@H]1C(=O)N2C(C(=O)O)=C(COC(N)=O)CS[C@H]12)c1ccco1 [cefuroxime]
patients still with a pathological ausculatory finding (after 7±2 treatment days): 26.3% | patients who experienced a worsening of the symptoms (terminations because of a worsening of the acute bronchitis) (after 7±2 treatment days): 7.6% | patients with worsening of the acute bronchitis (after 14±2 treatment days): 16.4% | patients with worsening, times as many as in the Eucalyptus oil/orange oil group (after 14±2 treatment days): 10 times | patients still with a pathological ausculatory finding (pathological respiratory sounds) (after 14±2 days): 7.6% | general state of health, Eucalyptus oil/orange oil group versus cefuroxime group (human, in vivo): no differences worth mentioning
